{"source": "patent US20240325544A1", "about": "“CATIONIC LIPID FOR COVALENT MODIFICATION OF PEPTIDES” (PharmalN Corporation, priority 2023, published 2024)", "key": {"NPR-C": {"molecular_target": "T1, NPR-C (Homo sapiens, UniProt P17342)", "T1 construct": "HeLa cells (known to express NPR-C); host or cells: HeLa cells", "T1 sequence (P17342 27-541)": "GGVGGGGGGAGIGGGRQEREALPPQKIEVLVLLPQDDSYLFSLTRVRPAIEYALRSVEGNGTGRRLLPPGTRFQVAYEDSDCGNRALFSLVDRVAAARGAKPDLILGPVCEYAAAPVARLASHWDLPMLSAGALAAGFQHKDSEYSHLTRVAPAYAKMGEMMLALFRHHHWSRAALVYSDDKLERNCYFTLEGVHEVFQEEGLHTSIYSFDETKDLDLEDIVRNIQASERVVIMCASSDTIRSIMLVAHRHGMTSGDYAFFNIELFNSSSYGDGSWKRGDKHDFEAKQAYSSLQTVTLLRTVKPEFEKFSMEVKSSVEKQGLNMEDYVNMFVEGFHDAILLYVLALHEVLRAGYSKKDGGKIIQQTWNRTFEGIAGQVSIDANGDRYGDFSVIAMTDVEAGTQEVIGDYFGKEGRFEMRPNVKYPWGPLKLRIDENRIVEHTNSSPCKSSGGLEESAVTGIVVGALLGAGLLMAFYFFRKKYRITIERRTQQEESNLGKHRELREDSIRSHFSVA", "assay": "cAMP baseline levels in HeLa cells (FIG. 13)", "type": "cell-based", "conditions": "10 μg/mL, 10 minutes, 1 mM IBMX", "description": "In this study, HeLa cells were cultured in Dulbecco modified Eagle medium (DMEM) supplemented with 10% FBS under 100% humidity and 5% CO2 at 37° C. The cells were harvested and suspended at a concentration of 10^7 cells/mL in ENGS and 5 uL of the cell suspension was added to each well of a 96-well low-adhesion plate. The cells (n=4 wells) were then treated with 5 uL of SEQ ID NO: 31 (final concentration of 10 μg/mL) in ENGS with 1 mM IBMX for 10 minutes. cAMP levels were evaluated using a cAMP assay kit (PerkinElmer, Waltham, MA, USA, #62AM4PEB) in accordance with its manufacture's protocol with a PerkinElmer plate reader. Statistical analysis was performed with GraphPad Prism against untreated control wells (n=4 wells) * P<0.05. The NPR-C receptor has been implicated in inhibiting adenylate cyclase activity, which would lead to a decrease in cyclic adenosine monophosphate (cAMP) production.\nIn vitro protocol: HeLa cells were purchased from ATCC (Manassas, VA, USA). […] Then, the cells (n=4 wells) were treated with 5 uL of SEQ ID NO: 31 (final concentration of 10 μg/mL) in ENGS with 1 mM IBMX (Fujifilm, Tokyo, Japan, #099-03411) for 10 minutes. cAMP levels were evaluated using a cAMP assay kit (PerkinElmer, Waltham, MA, USA, #62AM4PEB) in accordance with its manufacture's protocol with a plate reader (PerkinElmer, Waltham, MA, USA, #Nivo). […]"}, "MC38 colon cancer cells": {"system": "MC38 colon cancer cells", "assay": "Subcutaneous mouse model of colon cancer using MC38 cells (FIG. 12)", "type": "in vivo, mice", "conditions": "monotherapy, 0.3 mg/kg SC, 5 days on, 2 days off, 3 cycles; Day 22", "description": "FIGS. 12A-12B. […] Error bars represent standard error of the mean. FIG. 12A) A diagram of the dose schedule for administration of immune checkpoint inhibitor (anti-tigit Ab) and SEQ ID NO: 31. FIG. 12 B) Tumor growth kinetics of 6-week-old male C57BL/6J mice (n=8-9 per group) that were subcutaneously inoculated with MC38 colon cancer cells (1,000,000 cells/mouse) in right flank. Starting from Day 4 post-inoculation, anti-tigit Ab was administered intraperitoneally at 5 mg/kg twice a week for 2 cycles; SEQ ID NO: 31 was administered subcutaneously at a bolus dose of 0.3 mg/kg (0.1 μmol/kg) once daily for 5 days (5 days on, 2 days off) for 3 cycles; or a combination of anti-tigit Ab (5 mg/kg IP twice a week; 2 cycles) and SEQ ID NO: 31 (0.3 mg/kg SC once a day for 5 days on and 2 days off; 3 cycles). The control group, which received only buffer, was dosed in the same manner as SEQ ID NO: 31 to establish the baseline tumor growth kinetics. […]\nAnimal care and treatment: Male C57BL/6J mice (6 weeks-old) were purchased from Kyudo (Saga, Japan) and maintained under a 12-hour light/12-hour dark cycle with free access to water and standard mouse diet (MF diet; Oriental Yeast Co., Ltd, Tokyo Japan). […] Tumor sizes were measured using calipers on Days 4, 7, 14, and Day 22 post-inoculation. […]"}}, "note": "Bridge positions count the residues as written; N and C are the ends. Square brackets hold non-standard residues; d marks the D form. Peptide text beside a SMILES is read from it. * marks the point of attachment. Palmitoyl = CCCCCCCCCCCCCCCC(=O)*; Dap = NC[C@H](N)C(=O)O; AEEA = NCCOCCOCC(=O)O", "data": [{"compound": "CCCCCCCCCCCCCCCC(=O)NCCOCCOCC(=O)NCCOCCOCC(=O)NCCOCCOCC(=O)N[C@@H](CN)C(=O)N[C@@H](CN)C(=O)NCC(=O)N[C@@H](CC(C)C)C(=O)N[C@@H](CO)C(=O)N[C@@H](CCCCN)C(=O)NCC(=O)N[C@H]1CSSC[C@@H](C(=O)O)NC(=O)CNC(=O)[C@H](CC(C)C)NC(=O)CNC(=O)[C@H](CO)NC(=O)[C@H](CCC(N)=O)NC(=O)[C@H](CO)NC(=O)CNC(=O)[C@H]([C@@H](C)CC)NC(=O)[C@H](CCCNC(=N)N)NC(=O)[C@H](CC(=O)O)NC(=O)[C@H](CC(C)C)NC(=O)[C@H](CCCCN)NC(=O)[C@H](CC(C)C)NC(=O)CNC(=O)[C@H](Cc2ccccc2)NC1=O", "note": "[SEQ ID NO: 31] ({Palmitoyl-AEEA-AEEA-AEEA}-[Dap][Dap]GLSKGCFGLKLDRIGSQSGLGC-OH; disulfide 8-24; C-terminus assumed)", "values": [{"measurement": "cAMP baseline levels of HeLa cells", "setting": "NPR-C", "result": "changes (inhibition) of cAMP baseline levels"}, {"measurement": "Tumor volume and cancer burden compared to the Control group", "setting": "MC38 colon cancer cells", "result": "significant decrease in tumor volume and cancer burden"}]}]}
